Consider 1 molecule from ChEMBL document CHEMBL1155049, “Synthesis and cytotoxic activity of benzopyran-based platinum(II) complexes” (Bioorg Med Chem Lett, 2008).

pIC50: −log10 of the molar value.

Format in all cases: functional, cell-based
One assay deals with MCF7. The assay can be described thus: Cytotoxicity against human MCF7 cells expressing estrogen receptor after 72 hrs by MTT assay. The note with it: MCF7, 72 h. Background: Formazan colour is commonly taken as a measure of viable cells.
Another assay has as its system MDA-MB-231. The assay can be described thus: Cytotoxicity against estrogen receptor deficient human MDA-MB-231 cells after 72 hrs by MTT assay. The settings on record: MDA-MB-231, 72 h.
Assay [1] in a line: Cytotoxicity against estrogen receptor deficient human MDA-MB-436 cells after 72 hrs by MTT assay. The settings on record: MDA-MB-436, 72 h.
Another assay concerns MDA-MB-468. The assay can be described thus: Cytotoxicity against estrogen receptor deficient human MDA-MB-468 cells after 72 hrs by MTT assay. The settings on record: MDA-MB-468, 72 h.

In general, pIC50 refers to −log10 of the IC50, conventionally taken in molar units. The low end stands for a high IC50, the high end for a low IC50. As to `COc1ccc2c(c1)OC(C)(C)[C@@H](c1ccccc1)[C@@H]2c1ccc(OCCCCCCNCCCc2ccccn2)cc1`, the negative logarithm of the IC50 (pIC50) in the assay with MCF7 was 4.81; in the assay with MDA-MB-231, 4.73; in assay [1], 4.81; in the assay on MDA-MB-468, 5.12.
